The results in this text go back to patent publication US20040005708A1, “Polypeptide derivatives and nucleic acid carriers containing the same” (priority 2002, published 2004).

One assay concerns mice. The following applies: tail vein, Plasmid A 12.5 μg/0.5 ml per mouse, plasmid/pDBA weight ratio 1/3, two days after administration.
Another assay concerns HepG2 cells. The conditions noted are these: Plasmid A (luciferase) complex, plasmid/pDBA weight ratio 1/3 to 1/7, 10% fetal bovine serum, 4 h then 48 h incubation, compared to non-modified pDBA.

Procedure for HepG2 cells: Thirty minutes prior to administration, the nucleic acid carriers were added dropwise to the plasmid solution while stirring to prepare plasmid/pDBA complex solutions. PBS was used as solvent. Specifically, 25.0 μg/ml plasmid solutions were prepared, and plasmid/pDBA complex solutions having a plasmid concentration of 12.5 μg/ml were used as the gene transfer samples.
HepG2 cells were inoculated onto a 12-well multi-well plate (Coaster Inc.) at 1×10^5 cells/well one day prior to testing. The plasmid/pDBA complex solution was added to the HepG2 cells in the presence of 10% fetal bovine serum (Sanko Junyaku Co. Ltd.), and incubation was carried out at 37° C. for 4 hours. Medium was exchanged with a fresh culture medium and incubation continued for 48 hours. After washing with PBS twice, a cell lysis reagent (Toyo Ink Co. Ltd.) was added and freeze-thaw was carried out once. The cell lysate was recovered and subjected to centrifugation (12,000 rpm×10 minutes). The luciferase activity of the supernatant was determined with a luminometer (LumitLB9501; Berthold Inc.) using a luciferase assay system (Toyo Ink Co. Ltd.). The protein concentration of the centrifuged supernatant was also determined with a microplate reader (Rainbow Themo; Tecan Inc.) using a protein assay kit (Bio-Rad Inc.). […]
Procedure for mice: A solution of Plasmid A and a solution of pDBA were prepared at twice the desired concentration. Thirty minutes prior to administration, the pDBA solutions were added dropwise to the plasmid solution while stirring to prepare plasmid/pDBA complexes solution. PBS was used as solvent. Specifically, 50.0 μg/ml plasmid solutions were prepared, and plasmid/pDBA complex solutions having a plasmid concentration of 25 μg/ml were used as the gene transfer samples.
The complex solutions were administered to mice through their tail veins. The dosage of Plasmid A per mouse was 12.5 μg/0.5 ml. Two days after administration the gene transfer to the tissue was determined by measuring the luciferase activity found in the liver.

As for “side chain galactose-modified poly-DL-diaminobutyric acid [Gal-pDBA]”, the “luciferase activity in the liver as compared to the group where pDBA was used as the nucleic acid carrier” value in the assay on mice was “about 2.5 fold”. For the same substance, in the assay on HepG2 cells, the “activity of luciferase expressed” value is on record as “higher luciferase activity than did non-modified pDBA”.
